The molecules below were run against Asp-2 (Homo sapiens, UniProt P56817) (assay: Asp-2 Inhibitory Assay). Conditions: Assay (I), FAM-SEVNLDAEFK-TAMRA substrate, pH 4.5; read-out: inhibition (Asp-2).
Chain of Asp-2 (P56817 46-501): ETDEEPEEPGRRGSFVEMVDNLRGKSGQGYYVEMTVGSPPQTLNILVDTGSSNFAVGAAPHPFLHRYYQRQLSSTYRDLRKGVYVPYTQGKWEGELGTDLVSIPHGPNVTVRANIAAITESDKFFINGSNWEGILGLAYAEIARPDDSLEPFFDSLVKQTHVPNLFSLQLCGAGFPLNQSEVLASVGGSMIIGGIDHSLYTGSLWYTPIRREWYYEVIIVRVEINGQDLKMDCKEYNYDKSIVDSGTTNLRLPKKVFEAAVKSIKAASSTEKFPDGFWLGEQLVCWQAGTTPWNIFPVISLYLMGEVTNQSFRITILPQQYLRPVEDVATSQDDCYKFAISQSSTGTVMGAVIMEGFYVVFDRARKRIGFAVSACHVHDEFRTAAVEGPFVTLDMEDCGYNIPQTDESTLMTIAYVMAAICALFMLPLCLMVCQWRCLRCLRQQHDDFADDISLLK
Format: biochemical
Description: (I) Asp-2 Inhibitory Assay
This is prepared by diluting 2 ml of a 2 mM DMSO solution of the substrate into 400 ml of buffer (100 mM Sodium acetate pH=4.5, 1 l Milli-Q water, 0.06% Triton X-100 (0.5 ml/l), pH adjusted to 4.5 using glacial acetic acid). […] This is prepared by diluting 16 ml of a 500 nM enzyme solution into 384 ml of buffer (prepared as above).
Blank wells (enzyme solution replaced by buffer) are included as controls on each plate.
`CCCCNc1cc(C(=O)N[C@@H](Cc2ccccc2)[C@H](O)CN[C@@H](C)C(=O)NC2CCCCC2)cc(N2CCCC2=O)c1` [Example E56, N-[(1S,2R)-1-Benzyl-3-((S)-1-cyclohexylcarbamoylethylamino)-2-hydroxypropyl]-3-butylamino-5-(2-oxopyrrolidin-1-yl)benzamide] gave an IC50 of 1 to 50 nM. `CCCC[C@H](NC[C@@H](O)[C@H](Cc1ccccc1)NC(=O)c1cc(OC(C)C)cc(N2CCCC2=O)c1)C(=O)NCC(C)C` [Example E179, N-[(1S,2R)-1-Benzyl-2-hydroxy-3-((S)-1-isobutylcarbamoyl-pentylamino)-propyl]-3-isopropoxy-5-(2-oxopyrrolidin-1-yl)benzamide] gave an IC50 of 1 to 50 nM. With `O=C(NC(Cc1ccccc1)C(O)CNCc1cccc(C(F)(F)F)c1)c1cc(C2CCCC2)cc(N2CCCC2=O)c1` (centres unmarked) [Example E22, N-[1-Benzyl-2-hydroxy-3-(3-trifluoromethylbenzylamino)propyl]-3-cyclopentyl-5-(2-oxopyrrolidin-1-yl)benzamide] the IC50 was 1 to 50 nM. `CCC(CC)Nc1cc(C(=O)N[C@@H](Cc2ccccc2)[C@H](O)CN[C@@H](C)C(=O)NC2CCCCC2)cc(N2CCCC2=O)c1` [Example E55, N-[(1S,2R)-1-Benzyl-3-((S)-1-cyclohexylcarbamoylethylamino)-2-hydroxypropyl]-3-(1-ethylpropylamino)-5-(2-oxopyrrolidin-1-yl)benzamide] was tested, and the IC50 was 1 to 50 nM. In the case of `CCCCCNc1cc(C(=O)N[C@@H](Cc2ccccc2)[C@H](O)CN[C@@H](C)C(=O)NC2CCCCC2)cc(N2CCCC2=O)c1` [Example E54, N-[(1S,2R)-1-Benzyl-3-((S)-1-cyclohexylcarbamoylethylamino)-2-hydroxypropyl]-3-(2-oxopyrrolidin-1-yl)-5-pentylaminobenzamide], the IC50 is reported as 1 to 50 nM. For `CC(C)CCCC(C)NC[C@@H](O)[C@H](Cc1ccccc1)NC(=O)c1cc(NC(C)C)cc(N2CCCC2=O)c1` (stereo partly drawn) [Example E60, N-[(1S,2R)-1-Benzyl-3-(1,5-dimethylhexylamino)-2-hydroxypropyl]-3-isopropylamino-5-(2-oxopyrrolidin-1-yl)benzamide], the IC50 was 1 to 50 nM. Molecule `C[C@H](NC[C@@H](O)[C@H](Cc1ccccc1)NC(=O)c1cc(C2CCCC2)cc(N2CCCC2=O)c1)C(=O)NC1CCCCC1` [Example E12, N-[(1S,2R)-1-Benzyl-3-((S)-1-cyclohexylcarbamoylethylamino)-2-hydroxypropyl]-3-cyclopentyl-5-(2-oxopyrrolidin-1-yl)benzamide] has an IC50 of 1 to 50 nM.

Same assay, conditions: inhibition (Asp-2), Assay (I), FAM-SEVNLDAEFK-TAMRA substrate, pH 4.5
Molecule `CCNc1cc(C(=O)N[C@@H](Cc2ccccc2)[C@H](O)CNCc2cccc(OC(F)(F)F)c2)cc(N2CCCC2=O)c1` [Example E86, N-[(1S,2R)-1-Benzyl-2-hydroxy-3-(3-trifluoromethoxybenzylamino)-propyl]-3-ethylamino-5-(2-oxopyrrolidin-1-yl)benzamide] has an IC50 of 1 to 50 nM.

From US7253198B2, “Hydroxyethylamine derivatives for the treatment of Alzheimer's disease” (Glaxo Group Limited, priority 2002, dated 2007)
